This assay has as its target T1, Brugia malayi Protein disulfide isomerase (BmPDI) (Brugia malayi, UniProt A0A1S0S010).
T1 construct: gene pdi; recombinant 6XHis-tagged BmPDI expressed in E. coli
Put plainly: refolding of reduced denatured RNase A, RNA hydrolysis followed by absorbance at […] nm. Type of assay: biochemical.

Like-named read-outs stand apart in the source and are kept apart here.

With `O=C1C=CC(=C(c2ccc(O)cc2)c2ccc(O)cc2)C=C1` [aurin], the IC50 (read-out: IC50) was 17.6 µM.

In the case of `NC[C@H]1O[C@H](O[C@H]2[C@H](O[C@@H]3O[C@H](CO)[C@@H](O)[C@H]3O)[C@@H](O)[C@H](N)C[C@@H]2N)[C@H](N)[C@@H](O)[C@@H]1O` [ribostamycin], the IC50 was 35.6 µM.

`Cc1ccc(C(=O)Nc2ccc(S(=O)(=O)O)c3cc(S(=O)(=O)O)cc(S(=O)(=O)O)c23)cc1NC(=O)c1cccc(NC(=O)Nc2cccc(C(=O)Nc3cc(C(=O)Nc4ccc(S(=O)(=O)O)c5cc(S(=O)(=O)O)cc(S(=O)(=O)O)c45)ccc3C)c2)c1` [suramin]: for the setting “read-out: IC50”, the IC50 turned out to be 74.2 µM.

The record behind these values is article PMC5547380, “Molecular cloning and characterization of protein disulfide isomerase of Brugia malayi, a human lymphatic filarial parasite” (EXCLI Journal, 2017).
